Read-outs that look alike come from different tables or passages of the source.
How the values were obtained:
[1] = test system: HCT116 (human colorectal carcinoma) cells; assay: Cell growth inhibition assay, HCT116; format: cell-based
Description: (§1) A population of cells (>1×10^6 cells/mL as determined with a hemocytometer) was diluted with an appropriate amount of Dulbecco-modified Eagle Medium (DMEM, Gibco) containing 10% fetal bovine serum (FBS, Gibco) to a final concentration of 30,000 cells/mL.
(§2) To each well of a 96-well plate (Corning Costar), 100 μL of the cell-media solution was added with a multichannel pipette. The cultures were incubated at 37° C. in an atmosphere of 5% CO2 and 95% humidified air for 24 hours. The test compounds were added to the plate as follows: test substances were diluted in DMSO to a concentration of 1 mM and 10-fold serial dilutions were performed on a separate 96-well plate. Fresh culture medium (100 μL) was added to each well of cells to constitute 200 μL of medium per well followed by 2 μL of each test agent. Compounds were tested in duplicate (n=2-8 times) at six concentrations between 0-1,000 nM or 0-10,000 nM. Following addition, cultures were incubated for an additional 72 hours.
(§3) The plates were incubated at 37° C. for either 5 minutes (L1210) or 15 minutes (HCT116 and HCT116/VM46).

porcine tubulin = molecular target: T1, porcine tubulin (Sus scrofa, UniProt P02550+P02554); format: binding; conditions: for tubulin binding affinity compared with vinblastine: in words
T1 construct: purified porcine tubulin; purchased Cytoskeleton, Inc
T1 sequence (P02550 whole entry): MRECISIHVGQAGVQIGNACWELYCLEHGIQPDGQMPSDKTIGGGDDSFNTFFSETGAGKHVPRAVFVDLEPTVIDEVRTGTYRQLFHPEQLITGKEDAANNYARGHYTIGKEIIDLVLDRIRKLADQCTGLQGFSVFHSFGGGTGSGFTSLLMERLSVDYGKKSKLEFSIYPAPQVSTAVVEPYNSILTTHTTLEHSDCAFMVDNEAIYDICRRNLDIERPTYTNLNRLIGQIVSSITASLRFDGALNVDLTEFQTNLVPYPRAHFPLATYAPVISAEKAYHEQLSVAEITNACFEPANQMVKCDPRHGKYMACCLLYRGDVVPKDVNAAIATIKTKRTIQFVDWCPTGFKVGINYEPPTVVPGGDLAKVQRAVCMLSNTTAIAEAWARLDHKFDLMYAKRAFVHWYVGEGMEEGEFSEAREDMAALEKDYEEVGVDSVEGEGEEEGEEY
T1 sequence (P02554 whole entry): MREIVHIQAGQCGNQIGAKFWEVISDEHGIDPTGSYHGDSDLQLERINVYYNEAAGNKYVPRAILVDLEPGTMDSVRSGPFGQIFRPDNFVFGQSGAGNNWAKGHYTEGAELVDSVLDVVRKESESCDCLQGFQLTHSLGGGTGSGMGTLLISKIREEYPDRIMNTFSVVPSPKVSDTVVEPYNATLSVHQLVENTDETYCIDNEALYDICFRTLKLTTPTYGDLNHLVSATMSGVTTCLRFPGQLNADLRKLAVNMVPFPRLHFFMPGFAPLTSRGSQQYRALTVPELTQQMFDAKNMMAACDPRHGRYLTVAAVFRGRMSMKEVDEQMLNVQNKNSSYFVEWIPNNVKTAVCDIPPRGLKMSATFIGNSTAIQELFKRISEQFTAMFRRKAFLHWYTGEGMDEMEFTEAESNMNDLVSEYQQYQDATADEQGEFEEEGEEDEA
Excerpt: [Owellen et al., Biochem. Pharmacol. 1977 26:1213-1219.] […] Millipore Steriflip® filter units were used to wash the filter paper with buffer under mild suction.

[2] = test system: HCT116/VM46 (vinblastine-resistant strain of HCT116, Pgp over-expression) cells; assay: Cell growth inhibition assay, HCT116/VM46
Description: as §1, §2, §3

[3] = test system: L1210 (mouse lymphocytic leukemia) cells; assay: Cell growth inhibition assay, L1210; format: cell-based; conditions: L1210 murine leukemia cell line; avg of 4-16 determinations
Description: as §1, §2, §3

[4] = test system: HCC70 (Breast, overexpression of p53); assay: 15-cell line panel: HCC70; format: cell-based, human; conditions: independent laboratory panel
[5] = test system: human tumor 15-cell line panel; assay: Human tumor 15-cell line panel, whole panel (averages, ranges); format: cell-based; conditions: for average IC50 value in human tumor cell line panel: comparative average
HCT116 (Colon) = assay: 15-cell line panel: HCT116; format: cell-based, human; conditions: independent laboratory panel
[6] = test system: MDA-MB-468 (Breast, triple negative, amplified EGFR); assay: 15-cell line panel: MDA-MB-468; format: cell-based, human; conditions: independent laboratory panel
[7] = test system: ZR-75-1 (Breast, overexpression of her2); assay: 15-cell line panel: ZR-75-1; format: cell-based, human; conditions: independent laboratory panel
[8] = test system: SW403 (Colon, KRAS^G12V mutation); assay: 15-cell line panel: SW403; format: cell-based, human; conditions: independent laboratory panel
[9] = test system: LS174T (Colon, high levels of MUC2 mRNA); assay: 15-cell line panel: LS174T; format: cell-based, human; conditions: independent laboratory panel
[10] = test system: HCT116/VM46 (Colon, vinblastine resistant); assay: 15-cell line panel: HCT116/VM46; format: cell-based, human; conditions: independent laboratory panel; for IC50: > = highest concentration tested
LNCaP-FGC (Prostate) = assay: 15-cell line panel: LNCaP-FGC; format: cell-based, human; conditions: independent laboratory panel
[11] = test system: T47D (Breast, mutant p53); assay: 15-cell line panel: T47D; format: cell-based, human; conditions: independent laboratory panel
NCI-H520 (Lung) = assay: 15-cell line panel: NCI-H520; format: cell-based, human; conditions: independent laboratory panel
[12] = test system: HCC1143 (Breast, triple negative); assay: 15-cell line panel: HCC1143; format: cell-based, human; conditions: independent laboratory panel
[13] = test system: KPL4 (Breast, overexpression of erbB2); assay: 15-cell line panel: KPL4; format: cell-based, human; conditions: independent laboratory panel
[14] = test system: AU565 (Breast, overexpression of her2/neu); assay: 15-cell line panel, independent laboratory: AU565; format: cell-based, human
[15] = test system: PA-1 (Ovary, overexpression of AIB1); assay: 15-cell line panel: PA-1; format: cell-based, human; conditions: independent laboratory panel
[16] = test system: MCF-7 (Breast, overexpression of her2/neu); assay: 15-cell line panel: MCF-7; format: cell-based, human; conditions: independent laboratory panel; > = highest concentration tested
[17] = test system: L1210 (mouse lymphocytic leukemia) cells; conditions: reported in Leggans et al., Org. Lett. 2012; cited from earlier work
[18] = test system: HCT116/VM46 (vinblastine-resistant strain of HCT116, Pgp over-expression) cells; conditions: read-out: IC50 (nM) HCT116/VM46; reported in Leggans et al., Org. Lett. 2012; cited from earlier work
[19] = ligand vs [^3H]VBL (1:1), normalized to VLB + [^3H]VLB = 50.0%
[20] = HCT116 human colon cancer cell line, avg of 4-16 determinations, read-out: IC50 (nM) HCT116
[21] = read-out: IC50 (nM) HCT116/VM46, resistant human colon cancer cell line, Pgp over-expression

Row | Compound | tubulin binding affinity compared with vinblastine (porcine tubulin) | % ^3H-vinblastine remaining bound (porcine tubulin; [19]) | IC50 [1, 20] | % ^3H-vinblastine remaining bound (porcine tubulin) | IC50 [2, 21] | IC50 [3] | IC50 [4] | average enhancement over the activity of vinblastine in panel [5] | IC50 [6] | IC50 [7] | IC50 [8] | IC50 [9] | IC50 [10] | IC50 [11] | IC50 (NCI-H520 (Lung)) | IC50 [12] | IC50 [13] | IC50 [14] | IC50 [15] | IC50 [16] | also measured
1 | CCC1(NC(=O)Nc2ccc(-c3ccccc3)cc2)C[C@H]2CN(CCc3c([nH]c4ccccc34)[C@@](C(=O)OC)(c3cc4c(cc3OC)N(C)[C@H]3C(O)(C(=O)OC)[C@H](OC(C)=O)[C@]5(CC)C=CCN6CC[C@]43[C@@H]65)C2)C1 (stereo partly drawn) [Compound 35] | affinity matching or even slightly exceeding that of vinblastine | 48.5 ± 6.9% |  |  |  |  |  |  |  |  |  |  |  |  |  |  |  |  |  |  | IC50 ([1]; Homo sapiens, HCT-116, read-out: IC50 (nM) HCT116): 6.9 nM; IC50 ([2]; Homo sapiens, HCT-116/VM46, read-out: IC50 (nM) HCT116/VM46): 470 nM
2 | CCC1(NC(=O)N(C)C)CC2CN(CCc3c([nH]c4ccccc34)C(C(=O)OC)(c3cc4c(cc3OC)N(C)C3C(O)(C(=O)OC)C(OC(C)=O)C5(CC)C=CCN6CCC43C65)C2)C1 (stereo not drawn) [Compound 39] | slightly better affinity than vinblastine |  | 2.8 nM | 45.1 ± 3.5% | 80 nM | 5.9 nM |  |  |  |  |  |  |  |  |  |  |  |  |  |  | fold more potent than vinblastine, HCT116 ([1]; relative to vinblastine): 3 fold; activity difference between sensitive HCT116 and vinblastine-resistant HCT116/VM46 ([2]; HCT116/VM46 vs HCT116): 10 fold
3 | CCC1(NC(=O)N2CCc3ccccc3C2)CC2CN(CCc3c([nH]c4ccccc34)C(C(=O)OC)(c3cc4c(cc3OC)N(C)C3C(O)(C(=O)OC)C(OC(C)=O)C5(CC)C=CCN6CCC43C65)C2)C1 (stereo not drawn) [Compound 57] | higher affinity than vinblastine |  | 0.56 nM |  | 8.7 nM | 0.62 nM | 0.13 nM | 30 fold | 0.12 nM | 0.52 nM | 1.2 nM | 0.3 nM | 6.6 nM | 0.55 nM | 0.14 nM | 0.16 nM | 0.06 nM | 0.13 nM | 0.19 nM | 2.1 nM | average IC50 value in human tumor cell line panel [5]: 0.2 nM; IC50 (HCT116 (Colon)): 0.26 nM; IC50 (LNCaP-FGC (Prostate); read-out: IC50 LNCaP-FGC): 0.02 nM
4 | CC[C@]1(NC(=O)N2Cc3ccccc3C2)C[C@@H]2CN(CCc3c([nH]c4ccccc34)[C@@](C(=O)OC)(c3cc4c(cc3OC)N(C)[C@H]3[C@@](O)(C(=O)OC)[C@H](OC(C)=O)[C@]5(CC)C=CCN6CC[C@]43[C@@H]65)C2)C1 [Compound 58] | higher affinity than vinblastine | 41.2% | 0.6 nM |  | 7.5 nM | 0.51 nM | 0.04 nM | 30 fold | 0.39 nM | 0.45 nM | 0.45 nM | 0.45 nM | 3.5 nM | 0.41 nM | 0.1 nM | 0.09 nM | 0.04 nM | 0.11 nM | 0.11 nM | > 12.5 nM | average IC50 value in human tumor cell line panel [5]: 0.2 nM; IC50 ([5]; range over cell lines, read-out: IC50 values across the panel): 0.04 to 0.45 nM; IC50 (HCT116 (Colon)): 0.16 nM; differential of HCT116/VM46 from sensitive HCT116 in panel [10]: 20 fold; IC50 (LNCaP-FGC (Prostate); read-out: IC50 (nM) LNCaP-FGC): 0.24 nM
5 | CC[C@]1(O)C[C@@H]2CN(CCc3c([nH]c4ccccc34)[C@@](C(=O)OC)(c3cc4c(cc3OC)N(C)[C@H]3[C@@](O)(C(=O)OC)[C@H](OC(C)=O)[C@]5(CC)C=CCN6CC[C@]43[C@@H]65)C2)C1 [Vinblastine (1), Vinblastine, reference compound] |  |  |  | 50.0% | 600 nM | 6 nM | 3.5 nM |  | 4.6 nM | 8 nM | 7.9 nM | 19.6 nM | > 110 nM | 5 nM | 4.5 nM | 3.8 nM | 2.9 nM | 4 nM | 4.6 nM | > 110 nM | IC50 (LNCaP-FGC (Prostate); read-out: IC50 (nM) LNCaP-FGC): 5.1 nM; IC50 [17]: 6 nM; IC50 [18]: 600 nM
